Where two headings read alike, the source gives them in different places.
Tests used:
Gram-positive bacteria = details: 10 strains, 7 days
[1] = system: Aspergillus terreus (Anon); assay: Sensitivity to C-390 in medium W; format: cell-based; set-up: key: NG: no growth; Tr: traces
Protocol: (§1) An evaluation of the sensitivity to C-390 of various microorganisms capable of infecting the airways was carried out. This evaluation was carried out using medium W of example 4, containing a variable concentration of C-390. Table 10 below collates the observations collected with regard to the intensity of growth of the strains tested as a function of the C-390 concentration of the medium. The abbreviations NG (“no growth”) and Tr (“traces”) signify that no growth was observed or only a few not very significant traces.

[2] = system: Burkholderia cenocepacia (LMG 18832); assay: Sensitivity to C-390 in medium W; format: cell-based; set-up: key: NG: no growth; Tr: traces
Protocol: as §1

[3] = system: Burkholderia cenocepacia (LMG 18830); assay: Sensitivity to C-390 in medium W; format: cell-based; set-up: key: NG: no growth; Tr: traces; details: C-390 32 mg/l in medium W
Protocol: as §1

[4] = system: Burkholderia dolosa (LMG21820); assay: Sensitivity to C-390 in medium W; format: cell-based; set-up: key: NG: no growth; Tr: traces
Protocol: as §1

Fusarium oxysporum (ENV) = assay: Sensitivity to C-390 in medium W; format: cell-based; set-up: key: NG: no growth; Tr: traces
Protocol: as §1

[5] = system: Burkholderia stabilis (LMG18870); assay: Sensitivity to C-390 in medium W; format: cell-based; set-up: key: NG: no growth; Tr: traces
Protocol: as §1

Aspergillus flavus (ENV) = assay: Sensitivity to C-390 in medium W; format: cell-based; set-up: key: NG: no growth; Tr: traces
Protocol: as §1

[6] = system: Scedosporium prolificans (Anon); assay: Sensitivity to C-390 in medium W; format: cell-based; set-up: key: NG: no growth; Tr: traces
Protocol: as §1

[7] = system: Burkholderia multivorans (LMG 18822); assay: Sensitivity to C-390 in medium W; format: cell-based; set-up: key: NG: no growth; Tr: traces
Protocol: as §1

[8] = system: Burkholderia cenocepacia (672834P); assay: Sensitivity to C-390 in medium W; format: cell-based; set-up: key: NG: no growth; Tr: traces
Protocol: as §1

[9] = system: Burkholderia cepacia (LMG 1222); assay: Sensitivity to C-390 in medium W; format: cell-based; set-up: key: NG: no growth; Tr: traces
Protocol: as §1

[10] = system: Burkholderia stabilis (716237); assay: Sensitivity to C-390 in medium W; format: cell-based; set-up: key: NG: no growth; Tr: traces
Protocol: as §1

[11] = system: Burkholderia cenocepacia (640328); assay: Sensitivity to C-390 in medium W; format: cell-based; set-up: key: NG: no growth; Tr: traces
Protocol: as §1

[12] = system: Burkholderia gladioli (ENV); assay: Sensitivity to C-390 in medium W; format: cell-based; set-up: key: NG: no growth; Tr: traces
Protocol: as §1

[13] = system: Burkholderia multivorans (LMG 18824); assay: Sensitivity to C-390 in medium W; format: cell-based; set-up: key: NG: no growth; Tr: traces
Protocol: as §1

[14] = system: Geosmithia argillacea (Anon); assay: Sensitivity to C-390 in medium W; format: cell-based; set-up: key: NG: no growth; Tr: traces
Protocol: as §1

Mycobacteria = details: 20 strains, 7 days
Pseudomonas aeruginosa = details: 50 strains, 7 days
Enterobacteria = details: 7 strains, 7 days
[15] = selective agent 32 mg/l in medium L
[16] = selective agent 64 mg/l in medium L
[17] = selective agent 128 mg/l in medium L

Question: Which results are given for `CCN(CC)c1ccc(C2(Cl)c3ccccc3N(c3ccccc3)c3ccccc32)cc1` [Medium C-390, 9-chloro-9-(4′-diethylamino)phenyl-9,10-dihydro-10-phenylacridine]?
Answer: Number of strains having shown growth (Gram-positive bacteria; [15]): 0; Number of strains having shown growth (Gram-positive bacteria; [16]): 0; Number of strains having shown growth (Gram-positive bacteria; [17]): 0; intensity of growth ([1]; C-390 1 mg/l in medium W): NG; intensity of growth ([1]; C-390 2 mg/l in medium W): NG; intensity of growth ([1]; C-390 4 mg/l in medium W): NG; intensity of growth ([1]; C-390 8 mg/l in medium W): NG; intensity of growth ([1]; C-390 16 mg/l in medium W): NG; intensity of growth ([1]; C-390 32 mg/l in medium W): NG; intensity of growth ([2]; C-390 8 mg/l in medium W): NG; intensity of growth ([2]; C-390 16 mg/l in medium W): NG; intensity of growth ([2]; C-390 32 mg/l in medium W): NG; intensity of growth [3]: NG; intensity of growth ([4]; C-390 1 mg/l in medium W): Tr; intensity of growth ([4]; C-390 2 mg/l in medium W): NG; intensity of growth ([4]; C-390 4 mg/l in medium W): NG; intensity of growth ([4]; C-390 8 mg/l in medium W): NG; intensity of growth ([4]; C-390 16 mg/l in medium W): NG; intensity of growth ([4]; C-390 32 mg/l in medium W): NG; intensity of growth (Fusarium oxysporum (ENV); C-390 8 mg/l in medium W): NG; intensity of growth (Fusarium oxysporum (ENV); C-390 16 mg/l in medium W): NG; intensity of growth (Fusarium oxysporum (ENV); C-390 32 mg/l in medium W): NG; intensity of growth ([5]; C-390 2 mg/l in medium W): NG; intensity of growth ([5]; C-390 4 mg/l in medium W): NG; intensity of growth ([5]; C-390 8 mg/l in medium W): NG; intensity of growth ([5]; C-390 16 mg/l in medium W): NG; intensity of growth ([5]; C-390 32 mg/l in medium W): NG; intensity of growth (Aspergillus flavus (ENV); C-390 8 mg/l in medium W): NG; intensity of growth (Aspergillus flavus (ENV); C-390 16 mg/l in medium W): NG; intensity of growth (Aspergillus flavus (ENV); C-390 32 mg/l in medium W): NG; intensity of growth ([6]; C-390 0.5 mg/l in medium W): NG; intensity of growth ([6]; C-390 1 mg/l in medium W): NG; intensity of growth ([6]; C-390 2 mg/l in medium W): NG; intensity of growth ([6]; C-390 4 mg/l in medium W): NG; intensity of growth ([6]; C-390 8 mg/l in medium W): NG; intensity of growth ([6]; C-390 16 mg/l in medium W): NG; intensity of growth ([6]; C-390 32 mg/l in medium W): NG; intensity of growth ([7]; C-390 4 mg/l in medium W): NG; intensity of growth ([7]; C-390 8 mg/l in medium W): NG; intensity of growth ([7]; C-390 16 mg/l in medium W): NG; intensity of growth ([7]; C-390 32 mg/l in medium W): NG; intensity of growth ([8]; C-390 8 mg/l in medium W): NG; intensity of growth ([8]; C-390 16 mg/l in medium W): NG; intensity of growth ([8]; C-390 32 mg/l in medium W): NG; intensity of growth ([9]; C-390 2 mg/l in medium W): Tr; intensity of growth ([9]; C-390 4 mg/l in medium W): NG; intensity of growth ([9]; C-390 8 mg/l in medium W): NG; intensity of growth ([9]; C-390 16 mg/l in medium W): NG; intensity of growth ([9]; C-390 32 mg/l in medium W): NG; intensity of growth ([10]; C-390 4 mg/l in medium W): Tr; intensity of growth ([10]; C-390 8 mg/l in medium W): Tr; intensity of growth ([10]; C-390 16 mg/l in medium W): NG; intensity of growth ([10]; C-390 32 mg/l in medium W): NG; intensity of growth ([11]; C-390 16 mg/l in medium W): NG; intensity of growth ([11]; C-390 32 mg/l in medium W): NG; intensity of growth ([12]; C-390 16 mg/l in medium W): NG; intensity of growth ([12]; C-390 32 mg/l in medium W): NG; intensity of growth ([13]; C-390 4 mg/l in medium W): NG; intensity of growth ([13]; C-390 8 mg/l in medium W): NG; intensity of growth ([13]; C-390 16 mg/l in medium W): NG; intensity of growth ([13]; C-390 32 mg/l in medium W): NG; intensity of growth ([14]; C-390 0.5 mg/l in medium W): NG; intensity of growth ([14]; C-390 1 mg/l in medium W): NG; intensity of growth ([14]; C-390 2 mg/l in medium W): NG; intensity of growth ([14]; C-390 4 mg/l in medium W): NG; intensity of growth ([14]; C-390 8 mg/l in medium W): NG; intensity of growth ([14]; C-390 16 mg/l in medium W): NG; intensity of growth ([14]; C-390 32 mg/l in medium W): NG; Number of strains having shown growth (Mycobacteria; [15]): 19; Percentage of strains having shown growth (Mycobacteria; [15]): (95%); Number of strains having shown growth (Mycobacteria; [16]): 19; Percentage of strains having shown growth (Mycobacteria; [16]): (95%); Number of strains having shown growth (Mycobacteria; [17]): 19; Percentage of strains having shown growth (Mycobacteria; [17]): (95%); Number of strains having shown growth (Pseudomonas aeruginosa; [15]): 46; Percentage of strains having shown growth (Pseudomonas aeruginosa; [15]): (92%); Number of strains having shown growth (Pseudomonas aeruginosa; [16]): 45; Percentage of strains having shown growth (Pseudomonas aeruginosa; [16]): (90%); Number of strains having shown growth (Pseudomonas aeruginosa; [17]): 35; Percentage of strains having shown growth (Pseudomonas aeruginosa; [17]): (70%); Number of strains having shown growth (Enterobacteria; [15]): 0; Number of strains having shown growth (Enterobacteria; [16]): 0; Number of strains having shown growth (Enterobacteria; [17]): 0

Source: US20180030500A1, “ENRICHMENT AND SELECTIVE CULTURE OF MYCOBACTERIA” (priority 2015, published 2018)
